Source: patent US20250339462A1, “CANCER TREATMENT USING ULTRA-HIGH CONCENTRATION GASEOUS NITRIC OXIDE AND A CHECKPOINT INHIBITOR” (Beyond Air, Inc., priority 2022, published 2025)

Tested on: 4T1 tumor-bearing mice
Experiment: 4T1 breast cancer model, UNO/Anti-PD-1 Repeated Dose Study
Format: in vivo, mouse
Method: Preparation of 4T1 cells: Cancer cell suspension, in Hanks' Balanced Salt Solution (HBSS) (Biological Industries, Israel), at a concentration of 5.0×10^6 cells/ml was freshly prepared on the day of the cancer model induction. Cells were grown to a 70-80% confluency and harvested using trypsin. The cells were centrifuged at 1,200 revolutions per minute (rpm)—241 G for 8 minutes, then the pellet was re-suspended in 1 ml of HBSS. The cells were counted using an automated cell counter and a suspension with a concentration of 5.0×10^6 cells/ml was prepared. Cell viability must be above 90% before cell inoculation to the mice, otherwise new cells will need to be prepared. At the point of inoculation, cells will be at passage 8 at most. The cell suspension was then aspirated into a 1 ml syringe with a 27 G needle, for subcutaneous (s.c.) injection. All injection volume was used and was not re-introduced into the stock solution.
Inoculation of 4T1 cancer cells to mice—Cancer cell suspension at a concentration of 5.0×10^6 cells/ml was inoculated to the right flank of animals at a volume of 100 μl per mouse. Female Balb/c mice were inoculated with 100 μl of 5.0×10^6 4T1 cells/ml. Administration was performed as soon as possible following cell preparation and after manual shaking prior to withdrawal of cell suspension. Injections were performed using a 1 ml syringe and a 27 G needle where withdrawal is done without the needle.
UNO and N2 treatment—On the day of treatment, mice were anesthetized by an intraperitoneal (i.p.) injection of 100 mg/kg of ketamine and 10 mg/kg of xylazine hydrochloride solution. Tumor-bearing mice were treated with either N2 or UNO at 50,000 ppm or 100,000 ppm. UNO at 50,000 ppm was administered intratumorally by a 23 G needle for 10 minutes, at 0.2 LPM and 2 bar exit pressure. UNO at 100,000 ppm was administered intratumorally by a 23 G needle for 2 minutes, at 0.2 LPM and 2 bar exit pressure. After treatment, all mice were warmed and closely monitored until complete recovery was observed.
Injection of anti-PD-1—Anti-PD-1 was administered 5 times intraperitoneally (i.p.) at a dose of 10 mg/kg, i.p., using a 1 ml syringe with a 27 G needle. The injection was administered to approximately the same location each time.
UNO/Anti-PD-1 Repeated Dose Study—Balb/c mice (96) were inoculated with mouse breast cancer carcinoma (4T1) cells injected subcutaneously (s.c.) to the right flank. When the average tumor volume reached 50-150 mm^3, mice assigned to gas treatment groups were treated with 5% UNO (50,000 ppm), stabilized in N2, injected intratumorally (i.t.) for 10 minutes at a flow rate of 0.2 liters per minute (LPM) or with N2 injected intratumorally (i.t.) for 10 minutes at a flow rate of 0.2 LPM as a control. The mice were administered the gas treatment, e.g., UNO or N2, twice, on day 9 post-tumor cells inoculation and, 5 days later, on day 14 post-tumor inoculation. Mice assigned to the combination treatment group (i.e., gas+anti-mPD-1) were administered anti-mPD-1 injections starting from the day of first gas treatment and administered every three days thereafter, with a final dose of anti-mPD-1 injected 12 days after the first gas treatment.
Primary tumor volume progression was monitored twice a week by measuring the tumor using a digital caliper calculated as: […]
where Diameter 1 is length, Diameter 2 is width, and Diameter 3 is height.
Mice receiving two UNO treatments were divided into two groups: in the first group, the primary tumors were surgically removed 15 days after the first UNO treatment, while, in the second group, the tumors were not resected. Mice survival was evaluated. Mice that reached a tumor volume of ≥1500 mm^3 and/or a score of 12 were humanely euthanized, and the time of death was recorded. Metastases development was evaluated postmortem.

[1] = with primary tumor resection (FIG. 13B), Cox model

## [N]=O [UNO, nitric oxide]
Repeated UNO dosing 50,000 ppm 10 min twice, 14 days after first UNO treatment (FIG. 12B)
  Primary tumor size vs untreated or only anti-mPD-1: significantly smaller
Repeated doses of UNO
  Survival (Kaplan-Meier) vs anti-mPD-1 alone, untreated or N2 controls: tendency toward prolonged survival
Repeated doses of UNO without anti-mPD-1, 14 days after first UNO treatment
  Tumors smaller compared to anti-mPD-1 alone group: 21.0%
[1]
  Survival hazard ratio vs anti-mPD-1: 1.58
  Survival hazard ratio vs untreated: 0.69
Without resection of primary tumor (FIG. 13A), Cox model
  Survival hazard ratio vs untreated: 0.63
